Measured values taken from PMC6222789, “CF3-Substituted Mollugin 2-(4-Morpholinyl)-ethyl ester as a Potential Anti-inflammatory Agent with Improved Aqueous Solubility and Metabolic Stability” (Molecules : A Journal of Synthetic Chemistry and Natural …, 2018).
Like-named read-outs stand apart in the source and are kept apart here.

What was measured:
[1] = Plasma stability, rat plasma; assay type: in vitro ADME; details: for Plasma Stability (% Remain, 2 h) Rat: 37 °C, 1 μM
Protocol: (§1) The plasma stability assay was performed by incubation of human or rat plasma with a test compound in a final concentration of 1 μM for 120 min at 37 °C. The incubation was terminated by addition of 40 μL of ice-cold acetonitrile and vortexing for 5 min. The precipitated proteins were removed by centrifugation at 14,000× g for 5 min at 4 °C. Aliquots of the supernatant were injected onto a Shimadzu Nexera XR LC system. Percentages of the parent compound remaining were calculated by comparing peak areas using the Xcalibur software (version 1.6.1, Waltham, MA, USA).

hERG channel = target: T1, hERG channel (Homo sapiens, UniProt Q12809); assay: hERG channel binding assay (fluorescence polarization)
T1 construct: purchased Invitrogen PV5365
Protocol: hERG channel binding assay was performed using Invitrogen’s hERG Fluorescence Polarization Assay kit (PV5365) with Synergy Neo plate reader (BioTek, Winooski, VT, USA). The binding assay was carried out according to the kit manufacturer’s instructions.

[2] = Metabolic stability, human liver microsomes; assay type: in vitro ADME; details: 1 μM
Protocol: (§2) Pooled human liver microsomes (150 donor) and dog, rat, mouse liver microsomes were obtained from BD Gentest Co. (Woburn, MA, USA). NADPH regeneration system was obtained from Promega. S-Mephenytoin, 4-hydroxymephenytoin, and 1’-hydroxymidazolam were purchased from Ultrafine Chemical Co. (Manchester, UK). All other chemicals and solvents were of the highest grade available. The metabolic stability assay was performed by incubation of human or selected animal liver microsomes (most often dog, rat and mouse), at 37 °C with a test compound at a final concentration of 1 μM, in the presence of 0.5 mg/mL microsomal protein and NADPH regeneration system, in a total volume of 100 μL of 100 mM phosphate buffer, pH 7.4. The incubation was started by the addition of NADPH regeneration system and terminated with 40 μL of ice-cold acetonitrile at 0 and 30 min. Precipitated proteins were removed by centrifugation at 10,000× g for 5 min at 4 °C. Aliquots of the supernatant were injected onto an LC-MS/MS system. Incubations terminated prior to the addition of NADPH regeneration system (time point 0 min) were used as standards, defined as 100%. Percent of the parent compound remaining was calculated by comparing peak area.

[3] = Metabolic stability, mouse liver microsomes; assay type: in vitro ADME; details: for Metabolic Stability (% Remain, 30 min) Mouse: 1 μM
Protocol: as §2

[4] = Plasma stability, human plasma; assay type: in vitro ADME; details: 37 °C, 1 μM
Protocol: as §1

[5] = tested on: TNF-α-induced adhesion of U937 monocytic cells to HT-29 cells; assay: TNF-α-induced colonic epithelial cell adhesion assay; assay type: cell-based, human
Protocol: (§3) Synthesized mollugin derivatives were subjected to the colonic epithelial cell adhesion assay, which mimics the initial stage of colon inflammation. The inhibition of TNF-α-induced or IL-6-induced adhesion of U937 monocytic cells to HT-29 cells in 10 μM solution of synthesized molecules was measured, and the results are summarized in Table 1 and Table 2. Mesalazine (2), a commercially available medication for the treatment of IBD, and mollugin were chosen as assay positive controls.
(§4) HT-29 human colonic epithelial cells and U937 human pre-monocytic cells were grown in RPMI 1640 medium supplemented with 10% FBS, 100 IU/mL penicillin, and 100 µg/mL streptomycin in a humidified incubator under 5% CO2/95% air.
(§5) U937 monocytic cell adhesion to colonic epithelial cells was evaluated using human U937 pre-monocytic cells, which were prelabeled with 2′,7′-bis(2-carboxyethyl)-5(6)-carboxyfluorescein acetoxymethyl ester (BCECF/AM, 10 μg/mL) for 1 h at 37 °C. HT-29 cells cultured in 24-well plates were pretreated with test compound, 5-ASA, or tofacitinib for 1 h prior to incubation with TNF-α (10 ng/mL) and IL-6 (5 ng/mL) for an additional 3 h. Cells were then co-incubated with BCECF/AM-prelabeled U937 cells (1 × 10^6 cells/well) for 30 min at 37 °C. Non-adhering U937 cells were removed, and the HT-29 cells and adherent U937 cells were washed twice with PBS. Images were captured and processed with a Nikon ECLIPSE TE2000-U microscope and NIS-Elements F software (Nikon, Tokyo, Japan). For quantitative analysis, other sets of cells were lysed in 0.1% Triton X-100 in Tris (0.1 M), and the fluorescence was measured using a fluorescence-detecting microplate reader (Promega , Madison, WI, USA) at […]. Experiments were performed in triplicate and repeated at least three times independently.

[6] = Metabolic stability, dog liver microsomes; assay type: in vitro ADME; details: for Metabolic Stability (% Remain, 30 min) Dog: 1 μM
Protocol: as §2

[7] = Metabolic stability, rat liver microsomes; assay type: in vitro ADME; details: for Metabolic Stability (% Remain, 30 min) Rat: 1 μM
Protocol: as §2

[8] = tested on: IL-6-induced adhesion of U937 monocytic cells to HT-29 cells; assay: IL-6-induced colonic epithelial cell adhesion assay; assay type: cell-based, human
Protocol: as §3, §4, §5

[9] = tested on: TNF-α-induced adhesion of U937 monocytic cells to HT-29 cells; design: method as in PMID 19765578; details: cell adhesion assay and IBD animal model; cited from earlier work
Serum Amyloid A (SAA) = assay: Serum SAA level in DSS-induced colitis mouse model (ELISA); assay type: in vivo; details: 4% DSS-induced mouse model; mesalazine 20 mM; ELISA
Protocol: The level of Serum Amyloid A (SAA) was measured using a mouse SAA ELISA kit according to the manufacturer’s instructions (E-90SAA, Immunology Consultants Laboratory, Inc., Portland, OR, USA). All samples were assayed in duplicate. The concentrations of SAA were determined by comparison to serial dilutions of purified SAA calibrator.
Figure 2 Analysis of mouse serum amyloid A (SAA) level. Effect of 6d on the level of SAA in the 4% dextran sulfate sodium (DSS)-induced mouse model. The level of SAA in serum was determined by ELISA. The control mice received water + vehicle (water), and the treated groups received 4% DSS + vehicle or DSS with mesalazine (20 mM), 6d (10 μM), or 15c (10 μM). TEXT PRINTED IN THE PICTURE: vehecle: mSS assay (ng/ml): 252.08 | vehecle: mSS assay (ng/ml): 732.93 (4% DSS) | 2: mSS assay (ng/ml): 788.86 (4% DSS) | 6d: mSS assay (ng/ml): 295.77 (4% DSS) | 15c: mSS assay (ng/ml): 300.95 (4% DSS)

[10] = Homo sapiens, Epithelial cell, U937 adhesion to HT-29 cells, TNF-α-induced
[11] = Homo sapiens, Epithelial cell, U937 adhesion to HT-29 cells, IL-6-induced
[12] = human, Invitrogen hERG Fluorescence Polarization Assay kit (PV5365)

T1 sequence (Q12809 whole entry): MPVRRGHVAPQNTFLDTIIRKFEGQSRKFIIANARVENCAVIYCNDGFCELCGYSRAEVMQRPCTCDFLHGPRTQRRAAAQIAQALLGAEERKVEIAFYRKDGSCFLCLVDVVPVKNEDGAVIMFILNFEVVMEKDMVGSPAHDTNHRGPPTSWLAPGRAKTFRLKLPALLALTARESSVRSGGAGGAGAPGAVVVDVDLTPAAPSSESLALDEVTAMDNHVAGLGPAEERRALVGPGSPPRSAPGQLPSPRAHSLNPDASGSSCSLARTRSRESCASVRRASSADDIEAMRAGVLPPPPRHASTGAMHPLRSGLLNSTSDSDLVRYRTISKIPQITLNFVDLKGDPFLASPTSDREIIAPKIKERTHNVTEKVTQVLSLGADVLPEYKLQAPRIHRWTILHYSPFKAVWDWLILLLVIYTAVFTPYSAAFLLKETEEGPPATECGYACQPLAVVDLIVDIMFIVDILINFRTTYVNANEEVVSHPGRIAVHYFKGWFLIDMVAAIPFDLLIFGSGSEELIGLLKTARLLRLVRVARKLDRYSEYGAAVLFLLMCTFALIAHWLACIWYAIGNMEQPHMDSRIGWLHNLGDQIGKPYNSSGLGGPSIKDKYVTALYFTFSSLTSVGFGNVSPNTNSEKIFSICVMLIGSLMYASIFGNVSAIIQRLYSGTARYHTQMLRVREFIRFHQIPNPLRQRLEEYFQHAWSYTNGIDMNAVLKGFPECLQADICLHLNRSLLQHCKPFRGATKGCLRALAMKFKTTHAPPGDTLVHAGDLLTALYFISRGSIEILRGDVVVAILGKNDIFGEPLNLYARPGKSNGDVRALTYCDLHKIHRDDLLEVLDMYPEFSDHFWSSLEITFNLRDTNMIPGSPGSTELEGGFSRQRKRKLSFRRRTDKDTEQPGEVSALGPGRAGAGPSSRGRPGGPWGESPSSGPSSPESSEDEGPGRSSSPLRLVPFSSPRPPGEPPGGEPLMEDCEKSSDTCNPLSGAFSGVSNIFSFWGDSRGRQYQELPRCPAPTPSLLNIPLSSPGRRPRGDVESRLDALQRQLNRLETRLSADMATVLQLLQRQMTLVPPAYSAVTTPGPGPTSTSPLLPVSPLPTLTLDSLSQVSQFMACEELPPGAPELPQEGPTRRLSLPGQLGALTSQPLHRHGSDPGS

SMILES | Plasma Stability (% Remain, 2 h) Rat [1] [% Remain] | IC50 (hERG channel) [µM] | Metabolic Stability (% Remain, 30 min) Human [2] [% Remain] | Metabolic Stability (% Remain, 30 min) Mouse [3] [% Remain] | Plasma Stability (% Remain, 2 h) Human [4] [% Remain] | inhibition at 10 µM [5, 10] [%] | Metabolic Stability (% Remain, 30 min) Dog [6] [% Remain] | Metabolic Stability (% Remain, 30 min) Rat [7] [% Remain] | inhibition at 10 µM [8, 11] [%] | also measured
CC1(C)C=Cc2c(C(=O)OCCCN3CCOCC3)c(O)c3ccccc3c2O1 [6e, 3-Morpholinopropyl 6-hydroxy-2,2-dimethyl-2H-benzo[h]chromene-5-carboxylate] | 94 | > 10 | 36 | 24 | 100 | 40.1 ± 3.5 | 42 | 16 | 26.6 ± 5.1 | 
CN1CCC[C@@H]1COC(=O)c1c2c(c3ccccc3c1O)OC(C)(C)C=C2 [6f, (R)-(1-Methylpyrrolidin-2-yl)methyl 6-hydroxy-2,2-dimethyl-2H-benzo[h]chromene-5-carboxylate] | 99 | > 10 | 58 | 11 | 100 | 48.3 ± 6.2 | 12 | 13 | 38.2 ± 5.1 | 
CN1CCC(OC(=O)c2c3c(c4ccccc4c2O)OC(C)(C)C=C3)CC1 [6g, 1-Methylpiperidin-4-yl 6-hydroxy-2,2-dimethyl-2H-benzo[h]chromene-5-carboxylate] | 100 | > 10 | 78 | 14 | 100 | 54.8 ± 5.2 | 36 | 23 | 38.9 ± 5 | 
CN1CCN(CCOC(=O)c2c3c(c4ccccc4c2O)OC(C)(C)C=C3)CC1 [6h, 2-(4-Methylpiperazin-1-yl)ethyl 6-hydroxy-2,2-dimethyl-2H-benzo[h]chromene-5-carboxylate] | 89 | 3.3 | 76 | 9 | 79 | 42.2 ± 6.4 | 11 | 23 | 18.2 ± 3.1 | IC50 (hERG channel; [12]): 3 µM; inhibition of TNF-α-induced monocyte-epithelial adhesion ([5]; 10 μM): good % inhibition; inhibition of IL-6-induced monocyte-epithelial adhesion ([8]; 10 μM): reduced % inhibition
CN1CCN(CCCOC(=O)c2c3c(c4ccccc4c2O)OC(C)(C)C=C3)CC1 [6i, 3-(4-Methylpiperazin-1-yl)propyl 6-hydroxy-2,2-dimethyl-2H-benzo[h]chromene-5-carboxylate] |  | 5.3 |  |  |  | 58.5 ± 6.4 |  |  | 27.6 ± 4.2 | IC50 (hERG channel; [12]): 5 µM
CC1(C)C=Cc2c(C(=O)OCCN3CCOCC3)c(O)c3ccc(F)cc3c2O1 [15d, 2-Morpholinoethyl 9-fluoro-6-hydroxy-2,2-dimethyl-2H-benzo[h]chromene-5-carboxylate] | 81 |  | 48 | 11 | 94 | 47 ± 8.9 | 30 | 8 | 75.6 ± 11.5 | 
COC(=O)c1c2c(c3ccccc3c1O)OC(C)(C)C=C2 [compound 1, mollugin] | 16 | > 10 | 33 | 40 | 92 | 37.8 ± 5.7 | 33 | 19 | 40.8 ± 6.2 | stability in rat plasma [1]: unstable; metabolic stability with mouse liver microsomes [3]: generally unstable; metabolic stability with dog liver microsomes [6]: generally unstable; metabolic stability with rat liver microsomes [7]: generally unstable; improved efficacy over mesalazine [9]: at least 1000 fold
Nc1ccc(O)c(C(=O)O)c1 [compound 2, 5-Aminosalicylic acid, reference compound] |  |  |  |  |  |  |  |  |  | inhibition at 20000 µM ([5]; Homo sapiens, Epithelial cell, at 20 mM, U937 adhesion to HT-29 cells, TNF-α-induced): ~30%; % Inhibition TNF-α ([5]; at 20 mM, U937 adhesion to HT-29 cells, TNF-α-induced, listed as 2 (5-ASA)): 28.8 ± 7.7 (at 20 mM) %; serum SAA level (mSS assay) (Serum Amyloid A (SAA)): 788.86 ng/mL; inhibition at 20000 µM ([8]; Homo sapiens, Epithelial cell, at 20 mM, U937 adhesion to HT-29 cells, IL-6-induced): ~30%; % Inhibition IL-6 ([8]; at 20 mM, U937 adhesion to HT-29 cells, IL-6-induced, listed as 2 (5-ASA)): 32.6 ± 7.3 (at 20 mM) %
